“And” between values parts separate entries of the source, which are not always exact repeats. Identical values can stand only once. A value given as a limit tells only on which side of the number the result lay.

The target in data set [1] is T1, dopamine D1 receptor (Homo sapiens, UniProt P21728).
T1 construct: host or cells: LMtk (Ltk-) mouse fibroblast cells
The data set can be described thus: cAMP HTRF activation assay (absence of dopamine). In kind it is cell-based. The conditions noted are these: L-M(TK-), 10 μM compound, LMtk cells expressing D1, read-out: % of activation (compared to dopamine maximal response). The text has this: (§1) Assays have been designed to measure the effects of compounds in accordance with the present invention in the absence of dopamine (“activation assay”) and in the presence of dopamine (“potentiation assay”).
The activation assay measures the stimulation of the production of cyclic adenosinemonophosphate (cAMP) in the Homogeneous Time Resolved Fluorescent (HTRF) assay, with the maximum increase in cAMP by increasing concentrations of the endogenous agonist, dopamine, defined as 100% activation.
(§2) Cells were cultured at 37° C. in a humidified atmosphere of 5% CO2. […]
The measurement of changes in intracellular cyclic adenosinemonophopshpate (cAMP) was determined using the HTRF cAMP dynamic assay kit from CisBio (Codolet, France). […] The tracer binding is determined by an anti-cAMP antibody labeled with cryptate. The effects of the compound alone (agonism) was determined by performing the assay in the absence of dopamine, whilst the effect of the compound as a positive allosteric modulator (PAM) was determined in the presence of an EC20 concentration of dopamine. […] This is then incubated for a further 60 min at room temperature and changes in HTRF fluorescent emission ratio determined according to manufacturer's instructions using an Envision plate reader (Perkin Elmer, Zaventem, Belgium) with laser excitation. […]

The target of data set [2] is T1, dopamine D1 receptor. The data set is described as follows: cAMP HTRF potentiation assay (presence of EC20 dopamine). Format: cell-based.
Description: as §1
The potentiation assay measures the ability of compounds to increase the levels of cAMP produced by a low-threshold concentration of dopamine. The concentration of dopamine used ([EC20]) is designed to produce 20% stimulation compared to the maximal response (100%) seen with increasing the concentration of dopamine. To measure this potentiation increasing concentrations of the compound with the [EC20] of dopamine are incubated and the potentiation is measured as increases in cAMP production and concentration of compound which produces 50% of the potentiation of the cAMP levels is measured.
as §2
The measurement of changes in intracellular cyclic adenosinemonophopshpate (cAMP) was determined using the HTRF cAMP dynamic assay kit from CisBio (Codolet, France). […] The tracer binding is determined by an anti-cAMP antibody labeled with cryptate. The effects of the compound alone (agonism) was determined by performing the assay in the absence of dopamine, whilst the effect of the compound as a positive allosteric modulator (PAM) was determined in the presence of an EC20 concentration of dopamine. […]

Data set [3] concerns the target T2, human GABAA receptor α1,β2 and γ2 subunits (Homo sapiens, UniProt P14867+P18507+P47870).
T2 construct: expressed in transfected cells; host or cells: CHO-K1 cells
The data set can be described thus: Automated patch clamp studies on GABAA receptor cells. The conditions noted are these: 10 μM compound; GABA 15 μM; CHO-K1 cells; read-out: percentage of inhibition of the GABAA receptor. Format: cell-based. Here is the method:
CHO-K1 cells stably expressing human GABAA receptor α1,β2 and γ2 subunits were used. The cells were harvested using trypsin and maintained in serum-free medium at room temperature. The cells were washed and re-suspended in extracellular solution before testing.
Experiments on human GABAA (α1β2γ2) channels were conducted using an automated patch clamp assay (IonFlux™ HT). Compounds were tested at 3 concentrations (0.1, 1, and 10 μM) in 3 to 4 cells. The external solution for recording GABAA currents was composed of sodium chloride 137 mM, potassium chloride 4 mM, calcium chloride 1.8 mM, magnesium chloride 1 mM, HEPES 10 mM, and glucose 10 mM. Both external and internal solutions were titrated with NaOH or KOH to obtain a pH of 7.35 or 7.3, respectively. The internal pipette solution contained potassium fluoride 70 mM, potassium chloride 60 mM, sodium chloride 70 mM, HEPES 5 mM, EGTA 5 mM, and Magnesium ATP 4 mM. The final concentration of vehicle used to dilute compounds was 0.33% DMSO in each well. Bicuculline (0.032 to 100 μM) was used as positive control inhibitor. GABA (15 μM) was used as agonist. […]
The compound addition sequence was the following: one addition of the EC80 concentration of GABA was added to establish baseline response. […] Peak inward currents in response to the GABA additions in the presence of a single concentration of compound were measured. […]

In a further data set the test system is CYP3A4. The data set can be described thus: CYP3A4 induction assay in cryopreserved human hepatocytes. In kind it is in vitro ADME. Here is the method: The objective of the human hepatocyte assay is to characterize the induction potential of Compound of formula (I) by measuring the CYP3A4 activities after 3-days of hepatocytes treatment with culture medium alone or culture medium containing increasing concentration of NCE.
To this aim, cryopreserved human hepatocytes from a single donor are seeded on a 48 well collagen coated plate so that the final seeding density is 0.2×10^6 cells/well (final volume per well 0.25 mL). The cells are then incubated in seeding medium at 37° C., 95% humidity, 5% CO2 to allow the cells to attach. […]
For catalytic activity determination, solution of the CYP3A4 probe substrate, midazolam (final concentration 2.5 μM) is prepared in pre warmed assay medium. […] An aliquot of supernatant is diluted with deionised water and levels of 1-hydroxymidazolam is quantified using generic LC MS/MS methods.
The hepatocytes are solubilised in 0.1M sodium hydroxide at room temperature and protein content in each well determined using Pierce™ BCA Protein Assay Kit (Thermo Scientific) using bovine serum albumin as a standard.
The fold-induction (increase in CYP activity) is obtained by taking the ratio of the measured enzymatic activity obtained in hepatocytes treated with Compound of formula (I), over the one obtained in control hepatocytes treated with vehicle. […]

T1 sequence (P21728 whole entry): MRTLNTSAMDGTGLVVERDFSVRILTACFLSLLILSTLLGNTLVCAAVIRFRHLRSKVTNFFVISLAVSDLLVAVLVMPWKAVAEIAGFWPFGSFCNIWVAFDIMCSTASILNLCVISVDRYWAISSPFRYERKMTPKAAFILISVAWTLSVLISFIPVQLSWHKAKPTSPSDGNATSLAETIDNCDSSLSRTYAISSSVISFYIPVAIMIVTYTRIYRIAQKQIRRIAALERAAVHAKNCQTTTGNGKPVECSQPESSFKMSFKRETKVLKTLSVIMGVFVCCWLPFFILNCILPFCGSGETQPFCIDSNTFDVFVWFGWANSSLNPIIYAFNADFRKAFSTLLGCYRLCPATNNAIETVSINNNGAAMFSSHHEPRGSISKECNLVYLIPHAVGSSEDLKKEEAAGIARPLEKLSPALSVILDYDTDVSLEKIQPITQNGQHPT
T2 sequence (P14867 28-456): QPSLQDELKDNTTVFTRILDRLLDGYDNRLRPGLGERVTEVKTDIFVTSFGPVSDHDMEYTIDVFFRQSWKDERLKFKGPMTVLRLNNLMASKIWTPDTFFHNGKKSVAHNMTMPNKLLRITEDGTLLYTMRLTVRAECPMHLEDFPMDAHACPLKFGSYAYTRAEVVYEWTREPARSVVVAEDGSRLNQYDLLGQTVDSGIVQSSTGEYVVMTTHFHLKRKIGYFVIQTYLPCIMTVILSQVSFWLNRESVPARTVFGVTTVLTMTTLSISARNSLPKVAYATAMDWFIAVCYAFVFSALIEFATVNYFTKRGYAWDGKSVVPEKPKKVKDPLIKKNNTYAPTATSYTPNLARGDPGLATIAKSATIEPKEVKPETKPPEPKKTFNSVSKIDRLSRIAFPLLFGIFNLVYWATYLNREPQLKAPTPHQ
T2 sequence (P47870 25-512 limits assumed): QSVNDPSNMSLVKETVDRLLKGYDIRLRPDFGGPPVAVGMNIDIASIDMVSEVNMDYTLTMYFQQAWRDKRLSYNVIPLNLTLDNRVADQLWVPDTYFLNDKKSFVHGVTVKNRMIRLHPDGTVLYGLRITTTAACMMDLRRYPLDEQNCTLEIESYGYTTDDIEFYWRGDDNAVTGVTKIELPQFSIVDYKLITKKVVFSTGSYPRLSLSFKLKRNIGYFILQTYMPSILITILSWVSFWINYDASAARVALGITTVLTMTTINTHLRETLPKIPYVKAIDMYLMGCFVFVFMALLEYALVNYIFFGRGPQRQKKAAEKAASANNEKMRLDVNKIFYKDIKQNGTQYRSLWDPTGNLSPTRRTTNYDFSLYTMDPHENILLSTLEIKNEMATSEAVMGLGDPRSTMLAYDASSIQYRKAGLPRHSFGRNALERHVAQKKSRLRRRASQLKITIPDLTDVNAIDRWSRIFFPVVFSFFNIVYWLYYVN
T2 sequence (P18507 40-475): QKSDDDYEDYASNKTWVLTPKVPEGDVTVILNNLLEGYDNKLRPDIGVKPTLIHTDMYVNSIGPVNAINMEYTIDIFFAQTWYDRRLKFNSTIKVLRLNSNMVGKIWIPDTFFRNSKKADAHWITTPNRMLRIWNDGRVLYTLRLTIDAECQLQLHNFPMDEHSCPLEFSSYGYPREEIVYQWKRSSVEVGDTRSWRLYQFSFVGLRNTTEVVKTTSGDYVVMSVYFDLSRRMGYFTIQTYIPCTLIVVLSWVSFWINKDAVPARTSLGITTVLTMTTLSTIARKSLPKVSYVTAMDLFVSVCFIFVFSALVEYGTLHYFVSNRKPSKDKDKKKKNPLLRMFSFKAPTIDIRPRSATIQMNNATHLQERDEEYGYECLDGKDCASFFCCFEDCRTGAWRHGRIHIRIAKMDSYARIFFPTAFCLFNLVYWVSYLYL

For `C[C@H]1c2cccc(C(C)(C)O)c2C[C@H](CO)N1C(=O)Cc1c(Cl)ccc2c1c(Cl)nn2C` [compound of formula (I), 2-(3,5-dichloro-1-methyl-indazol-4-yl)-1-[(1S,3R)-3-(hydroxymethyl)-5-(1-hydroxy-1-methyl-ethyl)-1-methyl-3,4-dihydro-1H-isoquinolin-2-yl]ethanone], on dopamine D1 receptor [1], the Emax at 10 µM is under 20%. In addition, the “Erel (relative efficacy)” value at dopamine D1 receptor [2] (maximal potentiation relative to dopamine maximum response (100%)) is “about 68%”. Moreover, the EC50 on dopamine D1 receptor [2] (potentiation of cAMP in presence of EC20 dopamine (1.1 nM), LMtk cells expressing D1) is ~7.94 nM and < 316 nM. The inhibition at 10 µM in data set [3] is under 0.1%. Moreover, the “fold-induction value, times lower than positive control (Rifampicin)” value in the data set with CYP3A4 (compound 1 μM vs Rifampicin 10 μM, 72 h, CYP3A4 activity (midazolam)) is listed as “at least 7 times lower”. The “induction potential, times lower than positive control (Rifampicin)” value in the data set on CYP3A4 (highest fold-induction: compound at highest soluble concentration 3 μM vs Rifampicin 10 μM) was “about 4 times lower”.

Values taken from patent US12643877B2, “Substituted tetrahydroisoquinoiline derivative as a D1 positive allosteric modulator” (UCB Biopharma SRL, priority 2019, dated 2026).
